Test results: article PMC9774241, “Associating Biological Activity and Predicted Structure of Antimicrobial Peptides from Amphibians and Insects” (Antibiotics, 2022)
Values after ≈ are worked out from the molar mass of the structure shown. Residues, ends and D or L forms follow the SMILES beside them. No end group written: not given here.

What was measured:
Assay type in all cases: cell-based
Details in all cases: broth microdilution in MHB, peptide 128 down to 0.5 µg/mL, 20–24 h at 37 °C, no visible growth; range of three independent experiments
[1] = system: Escherichia coli ATCC 25922
Procedure: (§1) Bacteria were grown overnight at 37 °C in Mueller-Hinton Broth (MHB; Sigma-Aldrich, St. Louis. MO, USA) in a shaking incubator and aliquoted into cryovials with a 50% glycerol solution in a 1:1 ratio. No additives were added to the MHB during the growth of bacterial isolates. Glycerol stocks were stored at −80 °C.
(§2) The antimicrobial activity of the putative AMPs was determined by a broth microdilution assay as described by the Clinical and Laboratory Standards Institute, with the published adaptations for testing of cationic peptides. Escherichia coli 25922 and Staphylococcus aureus 29213 isolates were purchased from the American Type Culture Collection (ATCC; Manassas, VA, USA). A human clinical isolate of Salmonella enterica serovar Enteritidis was provided by the BC Centre for Disease Control. Bacteria from stocks stored at −80 °C were streaked onto nonselective Columbia blood agar with 5% sheep blood (Oxoid) and incubated overnight at 37 °C. Next, 2–4 colonies were streaked onto a new agar plate to ensure uniform health of colonies used in the broth microdilution assay. Isolated colonies were suspended in MHB and the optical density was measured with a spectrophotometer to create an initial inoculum concentration of approximately 1 × 10^8 cfu/mL. The inoculum was diluted 1:250 to a final concentration of 2–8 × 10^5 cfu/mL, which was confirmed by performing a Total Viability Count (TVC). The TVC consisted of plating a 1:1000 dilution of the final inoculum on nonselective media and was also used to confirm the health and purity of the inoculum in each trial.
(§3) Lyophilized 80 µg peptide aliquots synthesized by GenScript (Piscataway, NJ, USA) were resuspended to 1.28 mg/mL with UltraPure water (Thermo Fisher Scientific, Waltham, MA, USA) and serially diluted in polypropylene 96-well microtiter plates (Greiner Bio-One #650261, Kremsmünster, Austria) from 128 down to 0.5 µg/mL. Two columns per plate were reserved for growth and sterility controls. Inoculum was added to the wells containing the peptide and the growth control. Plates were incubated for 20–24 h at 37 °C. The minimum inhibitory concentration (MIC) was determined as the lowest peptide concentration where there was no visible bacterial growth.

[2] = system: Salmonella enterica serovar Enteritidis (human clinical isolate)
Procedure: as §1, §2, §3

[3] = system: Staphylococcus aureus ATCC 29213
Procedure: as §1, §2, §3

| Compound | MIC, E. coli ATCC 25922 [1] [µg/mL] | MIC, Salmonella Enteritidis [2] [µg/mL] | MIC, S. aureus ATCC 29213 [3] [µg/mL] |
| --- | --- | --- | --- |
| CC(C)C[C@H](NC(=O)CN)C(=O)N[C@@H](CC(C)C)C(=O)NCC(=O)N[C@@H](CCCCN)C(=O)N[C@H](C(=O)N[C@@H](CC(C)C)C(=O)NCC(=O)N[C@H](C(=O)NCC(=O)N[C@@H](CCCCN)C(=O)N[C@@H](CCCCN)C(=O)N[C@H](C(=O)N[C@@H](CC(C)C)C(=O)N[C@@H](CS)C(=O)NCC(=O)N[C@H](C(=O)N[C@H](C(=O)NCC(=O)N[C@@H](CCCNC(=N)N)C(=O)N[C@@H](CCC(=O)O)C(=O)N[C@@H](CCCNC(=N)N)C(=O)N[C@@H](CS)C(=O)N[C@@H](CCC(N)=O)C(=O)O)[C@@H](C)O)C(C)C)C(C)C)C(C)C)C(C)C [PeNi5] (H-GLLGKVLGVGKKVLCGVTGRERCQ-OH; N-terminus and C-terminus assumed) | 32 (≈ 12.9 µM) | 64 (≈ 25.9 µM) | > 128 |
| GILRSLGWIQMPRSRRRHR [AnFl2] | 16 to 32 | 128 | > 128 |
| GWGLINIKIPPVLHKVSVPLVSKR [ApMe3] | > 128 | > 128 | > 128 |
| CC[C@H](C)[C@H](NC(=O)[C@H](CCCCN)NC(=O)[C@H](CS)NC(=O)[C@H](CCCCN)NC(=O)[C@H](CC(C)C)NC(=O)[C@H](CC(N)=O)NC(=O)[C@H](Cc1ccc(O)cc1)NC(=O)[C@H](CC(C)C)NC(=O)[C@H](CC(C)C)NC(=O)[C@@H](NC(=O)[C@@H](NC(=O)[C@H](C)NC(=O)[C@@H](NC(=O)[C@H](CC(N)=O)NC(=O)[C@H](CCCCN)NC(=O)[C@H](C)NC(=O)[C@@H](NC(=O)[C@H](CC(N)=O)NC(=O)[C@H](CCCCN)NC(=O)[C@H](C)NC(=O)[C@@H](NC(=O)[C@H](CC(=O)O)NC(=O)[C@H](CCSC)NC(=O)[C@H](Cc1ccccc1)NC(=O)CN)[C@@H](C)O)C(C)C)C(C)C)C(C)C)[C@@H](C)O)C(=O)N[C@H](C(=O)N[C@@H](CCCCN)C(=O)N[C@@H](C)C(=O)N[C@@H](CS)C(=O)O)[C@@H](C)O [OdMa12] (H-GFMDTAKNVAKNVAVTLLYNLKCKITKAC-OH; N-terminus and C-terminus assumed) | 4 (≈ 1.27 µM) | 64 (≈ 20.3 µM) | 64 to 128 |
| WALRWKTR [PaVi1] | > 128 | > 128 | > 128 |
| FIKTQVLKHLVAGVRVARGLDWKWR [CaCa2] | 8 | > 128 | 64 to 128 |
| AGLQFPVGRIHRHLKTR [PeNi6] | > 128 | > 128 | > 128 |
| GFMDTAKNVAKNVAVTLLDNLKCKITKAC [OdMa13, rAMPage-discovered AMP, Odorrana margaretae] | 64 to 128 | > 128 | > 128 |
| CC[C@H](C)[C@H](NC(=O)[C@H](CCCCN)NC(=O)[C@H](CC(=O)O)NC(=O)[C@H](CC(C)C)NC(=O)[C@@H](NC(=O)CNC(=O)[C@@H](NC(=O)[C@H](CO)NC(=O)[C@H](Cc1ccccc1)NC(=O)[C@H](CC(N)=O)NC(=O)[C@H](CCCCN)NC(=O)[C@@H](NC(=O)CNC(=O)[C@H](CCC(=O)O)NC(=O)[C@H](CCCCN)NC(=O)[C@@H](NC(=O)[C@@H](NC(=O)[C@@H](NC(=O)[C@H](Cc1c[nH]c2ccccc12)NC(=O)[C@H](CC(C)C)NC(=O)CN)[C@@H](C)O)[C@@H](C)O)[C@@H](C)CC)C(C)C)C(C)C)C(C)C)C(=O)N[C@@H](CCCNC(=N)N)C(=O)N[C@@H](CS)C(=O)N[C@@H](CCCCN)C(=O)N[C@H](C(=O)N[C@H](C(=O)NCC(=O)NCC(=O)N[C@@H](CS)C(=O)O)[C@@H](C)O)[C@@H](C)CC [PeNi14] (H-GLWTTIKEGVKNFSVGVLDKIRCKITGGC-OH; N-terminus and C-terminus assumed) | 4 to 8 | 32 (≈ 10.2 µM) | 16 to 32 |
| RPRWSHRSRR [PeNi18] | > 128 | > 128 | > 128 |
| CC[C@H](C)[C@H](NC(=O)CN)C(=O)N[C@@H](CC(C)C)C(=O)N[C@@H](CO)C(=O)NCC(=O)N[C@@H](CC(C)C)C(=O)N[C@@H](CC(C)C)C(=O)NCC(=O)N[C@@H](C)C(=O)NCC(=O)N[C@@H](CCCCN)C(=O)N[C@@H](CCCCN)C(=O)N[C@@H](CC(C)C)C(=O)N[C@@H](C)C(=O)N[C@@H](CS)C(=O)NCC(=O)N[C@@H](CC(C)C)C(=O)N[C@H](C(=O)NCC(=O)N[C@@H](CC(C)C)C(=O)N[C@@H](CS)C(=O)O)[C@@H](C)CC [OdTo1] (H-GILSGLLGAGKKLACGLIGLC-OH; N-terminus and C-terminus assumed) | 8 (≈ 4.09 µM) | 32 to 64 | 8 to 16 |
| GIFSLIKGAAK [LeBo1] | > 128 | > 128 | > 128 |
| CC[C@H](C)[C@H](NC(=O)CN)C(=O)N[C@@H](Cc1ccccc1)C(=O)NCC(=O)NCC(=O)N[C@@H](Cc1c[nH]cn1)C(=O)N[C@@H](CC(C)C)C(=O)N[C@@H](CCCCN)C(=O)N[C@H](C(=O)NCC(=O)N[C@@H](CCCCN)C(=O)N[C@@H](CCCCN)C(=O)N[C@H](C(=O)N[C@@H](C)C(=O)N[C@@H](CS)C(=O)NCC(=O)N[C@@H](CC(C)C)C(=O)N[C@@H](CO)C(=O)NCC(=O)N[C@@H](CC(C)C)C(=O)N[C@@H](CS)C(=O)O)[C@@H](C)CC)C(C)C [OdTo2] (H-GIFGGHLKVGKKIACGLSGLC-OH; N-terminus and C-terminus assumed) | 32 (≈ 15.5 µM) | > 128 | > 128 |
| CC[C@H](C)[C@H](NC(=O)CN)C(=O)N[C@@H](CC(C)C)C(=O)N[C@@H](CC(C)C)C(=O)N[C@@H](CC(N)=O)C(=O)N[C@H](C(=O)N[C@@H](CC(C)C)C(=O)N[C@@H](CCCCN)C(=O)NCC(=O)N[C@@H](C)C(=O)N[C@@H](C)C(=O)N[C@@H](CCCCN)C(=O)N[C@@H](CC(N)=O)C(=O)N[C@H](C(=O)N[C@@H](C)C(=O)NCC(=O)N[C@H](C(=O)N[C@@H](CC(C)C)C(=O)N[C@@H](CC(C)C)C(=O)N[C@@H](CC(=O)O)C(=O)N[C@@H](CCCCN)C(=O)N[C@@H](CC(C)C)C(=O)N[C@@H](CCCCN)C(=O)N[C@@H](CS)C(=O)N[C@@H](CCCCN)C(=O)N[C@H](C(=O)N[C@H](C(=O)NCC(=O)NCC(=O)N[C@@H](CS)C(=O)O)[C@@H](C)O)[C@@H](C)CC)C(C)C)C(C)C)[C@@H](C)O [PeNi8] (H-GILLNTLKGAAKNVAGVLLDKLKCKITGGC-OH; N-terminus and C-terminus assumed) | 8 (≈ 2.66 µM) | 64 (≈ 21.2 µM) | 4 to 8 |
| ITEPVGTKAPTFTSELRGGWLKKR [PaVa3] | > 128 | > 128 | > 128 |
| CC[C@H](C)[C@H](NC(=O)[C@H](CO)NC(=O)[C@@H]1CCCN1C(=O)[C@H](CC(C)C)NC(=O)[C@@H](NC(=O)[C@H](CCCCN)NC(=O)[C@H](C)NC(=O)[C@H](C)NC(=O)[C@H](CC(C)C)NC(=O)CNC(=O)[C@H](C)NC(=O)[C@@H](NC(=O)[C@@H](NC(=O)[C@@H]1CCCN1C(=O)[C@H](CC(C)C)NC(=O)[C@H](Cc1ccccc1)NC(=O)[C@H](CCCNC(=N)N)NC(=O)[C@H](CCC(N)=O)NC(=O)[C@H](CCC(=O)O)NC(=O)[C@@H](N)CCC(=O)O)C(C)C)C(C)C)C(C)C)C(=O)N[C@H](C(=O)N[C@@H](CS)C(=O)N[C@@H](C)C(=O)N[C@H](C(=O)N[C@H](C(=O)N[C@@H](CCCCN)C(=O)N[C@@H](CCCCN)C(=O)N[C@@H](CS)C(=O)O)[C@@H](C)O)C(C)C)[C@@H](C)CC [RaSy2] (H-EEQRFLPVVAGLAAKVLPSIICAVTKKC-OH; N-terminus and C-terminus assumed) | 64 (≈ 21.4 µM) | > 128 | 64 to 128 |
| GAFVLWGPTPRPRRR [DiLo1] | 128 | > 128 | > 128 |
